Measured values: US20160022718A1, “METHODS OF LOWERING BLOOD PRESSURE” (LEXICON PHARMACEUTICALS, INC., priority 2010, published 2016)

Tested on: patients with type 2 diabetes mellitus
Experiment: randomized, double-blind, placebo controlled Phase 2a clinical trial, 28 days once daily oral dosing
Format: in vivo, human
Details: for Change in Weight, change from baseline / Seated Diastolic BP, change from baseline / Seated Systolic BP, change from baseline / Serum Triglyceride, change from baseline: four-week treatment; for Change in Weight, change from baseline: placebo −2.2; for Seated Diastolic BP, change from baseline: placebo −2.9; for Seated Systolic BP, change from baseline: placebo −4.3; for Serum Triglyceride, change from baseline: placebo −20.2; for reduction of average percent HbA1c after four weeks of dosing: placebo 0.49; for reduction in fasting plasma glucose level at week four: placebo 15.1 mg/dl
Method: Certain aspects of this invention may be understood with reference to the figures, which provide results obtained from a randomized, double-blind, placebo controlled Phase 2a clinical trial, wherein 150 mg and 300 mg doses of a compound of the invention were orally administered once daily to patients with type 2 diabetes mellitus.
This invention is based, in part, on findings—provided herein—obtained from a randomized, double-blind, placebo controlled Phase 2a clinical trial, wherein 150 mg/day and 300 mg/day doses of a dual SGLT1/2 inhibitor were administered to patients with type 2 diabetes mellitus. The dual SGLT1/2 inhibitor was (2S,3R,4R,5S,6R)-2-(4-chloro-3-(4-ethoxybenzyl)phenyl)-6-(methylthio)tetrahydro-2H-pyran-3,4,5-triol, which has the structure:
Patients (n=36) with type 2 diabetes mellitus received one of two oral doses of (2S,3R,4R,5S,6R)-2-(4-chloro-3-(4-ethoxybenzyl)phenyl)-6-(methylthio)tetrahydro-2H-pyran-3,4,5-triol, given as 150 mg or 300 mg once daily, or matching placebo, for 28 days.
In this study, patients on metformin were taken off of the drug 16 days prior to day 0, the day dosing first began.

[1] = both treatment groups (150 mg/day and 300 mg/day)

## CCOc1ccc(Cc2cc([C@@H]3O[C@H](SC)[C@@H](O)[C@H](O)[C@H]3O)ccc2Cl)cc1 [(2S,3R,4R,5S,6R)-2-(4-chloro-3-(4-ethoxybenzyl)phenyl)-6-(methylthio)tetrahydro-2H-pyran-3,4,5-triol]
150 mg (n = 12)
  Change in Weight, change from baseline: −3.4%
  Seated Diastolic BP, change from baseline: −5.8 mmHg
  Seated Systolic BP, change from baseline: −10.3 mmHg
  Serum Triglyceride, change from baseline: -66.6 mg/dL
150 mg dose group, p=0.036, baseline 8.22%
  reduction of average percent HbA1c after four weeks of dosing: 1.15%
150 mg dose group
  reduction in fasting plasma glucose level at week four: 53.4 mg/dL
150 mg or 300 mg once daily, 28 days
  dose-limiting toxicities: no evidence of dose-limiting toxicities was observed
150 mg or 300 mg once daily, 28 days, evenly distributed across all dose groups, including placebo
  adverse events: generally mild
150 mg/day and 300 mg/day groups vs placebo, day 27
  insulin sensitivity, homeostatic model assessment (HOMA) (FIG. 4): improved insulin sensitivity
150 mg/day and 300 mg/day groups, after one day of treatment
  mean plasma glucose AUC (FIG. 3): statistically significant decreases
300 mg (n = 12)
  Change in Weight, change from baseline: −3.7%
  Seated Diastolic BP, change from baseline: −5.3 mmHg
  Seated Systolic BP, change from baseline: −13.1 mmHg
  Serum Triglyceride, change from baseline: -62.8 mg/dL
300 mg dose group, p=0.017, baseline 8.50%
  reduction of average percent HbA1c after four weeks of dosing: 1.25%
300 mg dose group, p=0.037 vs placebo
  percentage of patients achieving fasting plasma glucose levels of <105 mg/dl at week four: 42%
300 mg dose group
  reduction in fasting plasma glucose level at week four: 65.9 mg/dL
Both dose groups (150 mg and 300 mg), four weeks
  share of patients with HbA1c levels reduced to less than or equal to 7%: half
Both dose levels (150 mg and 300 mg once daily, oral), preliminary data
  glucosuria over the 28-day dosing period compared to placebo: significant and sustained glucosuria
[1]
  glucose tolerance vs placebo group (FIG. 2): greater glucose tolerance
  mean arterial pressure, day 28 compared to baseline (FIG. 10): decreased
  post-prandial glucose levels compared to placebo (FIG. 5): rapid, statistically significant decrease
